Reference: patent publication US20070264191A1, “Materials and Methods Relating to the Treatment of Glioblastomas” (priority 2004, published 2007)
Peptide text beside a SMILES is read from it.

How the values were obtained:
[1] = system: SF767, U251MG, and M059K human glioma cell lines; assay: In vitro fluorescent peptide binding assay, glioma cell lines; details: lissamine-rhodamine conjugated peptide, 100 ng, 20 min, 37° C., FIG. 4
Protocol: (§1) For in vitro binding assay, 1×10^5 cells were seeded into each well of a 24-well dish (Nunc, Roskilde, Denmark). After culturing the cells overnight at 37° C., the cells were washed once with PBS, followed by incubating in blocking buffer containing PBS with 1% BSA at room temperature for 1 h. The cells were washed twice with PBS. One hundred nanogram of lissamine-rhodamine conjugated peptide (Mimotopes, Victoria, Australia) were added to the blocking buffer containing 0.1% sodium azide, and incubated with the cells at 37° C. for 20 min. This is followed by 5 washes of PBS with 0.1% Tween-20 at RT for 5 min intervals. The cells were then fix in 4% paraformaldehyde, followed by counterstaining using FITC-phalloidin (Sigma-Aldrich Corp., St. Louis, Mo.) and mounted. Images were captured digitally and analyzed using LSM 510 confocal microscope (Carl Zeiss Microscopy, Gottingen, Germany) with appropriate filters.
(§2) To determine the direct specific binding of the (K16)-MG11 peptide to cell surface of glioma cells, (K16)-MG11 peptide was conjugated to lissamine rhodamine. After incubating the conjugated (K16)-MG11 to the various tumor cell lines, SF767, U251MG, M059K, A549, HepG2, and HK1, for 20 minutes at 37° C., the cells were examined under confocal microscopy and the level of fluorescence detected were compared between glioma and non-glioma cells. […]

SF767 glioma xenograft = assay: In vivo fluorescent peptide binding assay, intratumoral injection; details: SCID mice, 100 μg lissamine-rhodamine conjugated peptide intratumorally, 20 min, FIG. 6
Protocol: SF767-tumor bearing mice were randomized into 2 groups (2 per group). Fifty microliter of 100 μg of lissamine rhodamine conjugated (K16)-MG11 or (K16)-H42 was injected intratumorally into 2 mice harboring the tumor, and allowed to circulate for 20 min. After 20 min, the mice were anethesized and perfused through the heart with PBS followed by 4% paraformaldehyde. The tumor were dissected and prepared for cryostat sections. The sections were then counterstained in FITC-phalloidin and mounted. Images were examined using LSM 510 meta confocal microscope (Carl Zeiss Microscopy, Göttingen, Germany) with appropriate filters.
After 20 min of circulation, the mouse bearing the SF767 glioma xenograft was perfused and tumor was harvested. The tumor sections were counterstained with FITC-labeled phalloidin, which stains F-actin, to determine the cell surface.

SF767 glioma cells = assay: Transfection with peptide/pNGVL-Luc complexes, luciferase activity, SF767; type: cell-based, human
Protocol: The formation and transfection of peptide/DNA complexes were carried out according to Patel et al. with slight modifications. […] […] […] The peptide was added dropwise to the DNA solution while vortexing gently (Stuart Scientific, UK). This mixture was allowed to incubate at room temperature (RT) for 30 min. After 30 min, the mixture was diluted to 4 μg/ml DNA with DMEM in the presence of 100 μM of chloroquine, and added to cells.
The human tumor cell lines, dGli36, SF767, U251, A549, HeLa, HepG2, and CNE2 were cultured in DMEM supplemented with 10% fetal bovine serum (FBS) (Hyclone Laboratories, Logan, Utah). For transfection, 3×10^5 cells were seeded into each well of a six-well plate (Nunc, Roskilde, Denmark). After culturing the cells overnight, the cells were washed twice with PBS. Freshly prepared peptide/DNA complexes were added into each well and incubated for 2 h at 37° C. For transfection performed in the presence of serum, FBS was added to a final concentration of 10% directly after addition of peptide/DNA complexes to each well. The reporter gene activity was assayed after 24 h or 48 h.
Cells were harvested from 6-well plates 24 h or 48 h following transfection, washed, resuspended in 120 μl of Tris-HCl (pH 7.8), and freeze-thawed three times. Cell debris was discarded following centrifugation at 14,000 g at 4° C. for 10 min. One hundred μl of the supernatant collected was used for assaying luciferase activity using the Auto-Lumat LB952 luminometer (EG&G Berthold, Bad Wildbad, Germany). Five microliter of the supernatant collected was used for the determination of protein concentration using the Bio-Rad protein assay dye reagent (Bio-Rad Laboratories, Hercules, USA) with the Ultrospec 3000 UV/visible spectrophotometer (Amersham Biosciences AB, Uppsala, Sweden).

[2] = system: non-glioma cell lines (A549, HepG2, HK1); assay: In vitro fluorescent peptide binding assay, non-glioma cell lines; set-up: species or system human; details: lissamine-rhodamine conjugated peptide, 100 ng, 20 min, 37° C., FIG. 4
Protocol: as §1, §2

other glioma cells = details: Spear et al., 2001; cited from earlier work
U87MG glioma cell line = details: Spear et al., 2001; cited from earlier work

For poly-L-lysine-SIPVKFNKP-H42 [(K16)-H42], the “cell surface fluorescence (confocal microscopy)” value [1] was “non-specific red fluorescence was observed in all cell lines”, the “red fluorescence in tumor cryostat sections” value (SF767 glioma xenograft) was “red fluorescent was not detected” and the luciferase expression (SF767 glioma cells; complex with pNGVL-Luc, chloroquine, 48 h post transfection, FIG. 3C) was 8444 RLU/μg. For the same molecule, the “luciferase expression at various peptide to DNA ratios” value (SF767 glioma cells; ratios 1:2, 2:1, 10:1, 20:1, 24 h post-transfection, FIG. 3A) was “no significant binding could be detected” and the “cell surface fluorescence (confocal microscopy)” value [2] was “non-specific red fluorescence was observed in all cell lines”.

For MCPKHPLGC, the binding (other glioma cells) is listed as “did not bind” and the binding specificity (U87MG glioma cell line) is listed as “specific for U87MG glioma cell line”.

With CC[C@H](C)[C@H](NC(=O)[C@H](CO)NC(=O)[C@H](CCCCN)NC(=O)[C@H](CCCCN)NC(=O)[C@H](CCCCN)NC(=O)[C@H](CCCCN)NC(=O)[C@H](CCCCN)NC(=O)[C@H](CCCCN)NC(=O)[C@H](CCCCN)NC(=O)[C@H](CCCCN)NC(=O)[C@H](CCCCN)NC(=O)[C@H](CCCCN)NC(=O)[C@H](CCCCN)NC(=O)[C@H](CCCCN)NC(=O)[C@H](CCCCN)NC(=O)[C@H](CCCCN)NC(=O)[C@H](CCCCN)NC(=O)[C@@H](N)CCCCN)C(=O)N1CCC[C@H]1C(=O)N[C@H](C(=O)N[C@@H](CCCCN)C(=O)N[C@@H](Cc1ccccc1)C(=O)N[C@@H](CC(N)=O)C(=O)N[C@@H](CCCCN)C(=O)N1CCC[C@H]1C(=O)N[C@@H](CC(C)C)C(=O)N[C@@H](Cc1c[nH]c2ccccc12)C(=O)N[C@@H](C)C(=O)N[C@H](C(=O)N[C@@H](Cc1ccccc1)C(=O)N1CCC[C@H]1C(=O)N1CCC[C@H]1C(=O)N[C@@H](CCCNC(=N)N)C(=O)N1CCC[C@H]1C(=O)N1CCC[C@H]1C(=O)N[C@@H](Cc1c[nH]c2ccccc12)C(=O)N[C@@H](CC(C)C)C(=O)O)[C@@H](C)O)C(C)C [(K16)-MG11, poly-L-lysine-SIPVKFNKP-MG11] (H-KKKKKKKKKKKKKKKKSIPVKFNKPLWATFPPRPPWL-OH) the “toxicity to treated cells” value (SF767 glioma cells; peptide: DNA ratios of 10:1 and 20:1) was “toxicity could be detected”.
